Laboratory results reported in US6518012B1, “Method for regulating the expression of MHC antigens and CD40 by inhibitors of histone deacetylation” (Health Research, Inc., priority 1999, dated 2003).

Columns and labels:
HLA-DRα mRNA [1] = experiment: HLA-DRα mRNA by standard PCR and real-time PCR in human cell lines JAR and SK-N-MC; type: cell-based; details: JAR
Experimental: (§1) To determine the effect of DAIs on HLA-DRα mRNA, cytoplasmic RNA was isolated from untreated and treated human trophoblast cell line JAR using standard techniques (RNeasy System from Qiagen). Standard PCR was performed using primers for DR and CIITA (Murphy et al., 1998, Reprod Dev., Chin et al., 1994, Immunity 1:687-697). Other primers used included human and mouse GAPDH (Clontech) and forward primer 5′-[…]-3′ (SEQ ID NO:25) and reverse primer 5′-[…]-3′ (SEQ ID NO:26) for mouse CIITA. PCR products were amplified with GOLD Taq for 10 min at 95° C., then 95° C. for 30 sec, 60° C. for 60 sec (25-45 cycles), then an extension at 60° C. for 10 min.
(§2) Oligonucleotide primers and TaqMan 5′-6-FAM and 3′-TAMRA-labeled probes were synthesized in the RPCI Biopolymer Facility. Primer and probe sequences are listed under Sequence Listing and also in FIG. 9. Sequences were designed using standard software (PrimerExpress software, PE Biosystems) except for human GAPDH.
(§3) Realtime PCR reactions contained TaqMan Universal PCR Master Mix (PE Biosystems), primers at 300 nM, and probes at optimal concentrations (150-225 nM depending on gene). Reactions were carried out on an ABI PRISM 7700 Sequence Detection System (PE Biosystems). Cycling conditions were 50° C. for 2 min, 95° C. for 10 min, then 60 cycles of 95° C. for 15 sec, 60° C. for 1 min. PCR samples were run in triplicate. The detection system and quantitative PCR was carried out as described by Williamson et al. (1995, Genet Res. 65:83-93). The threshold cycle number CT corresponded to the cycle number, at which the fluorescent emission reaches 10 standard deviations above the mean fluorescent emission, measured during the early ‘baseline’ cycles of the PCR. The CT values for triplicates were averaged and normalized to GAPDH levels. […] Assuming reverse transcription efficiencies were approximately the same for each sample, relative amounts of mRNA using the comparative CT method. Fold changes in mRNA levels were calculated as 2^x where x=the difference between normalized CT values of the control and experimental samples.
To evaluate the effects of DAIs on human cells, the human trophoblast cell line was treated with 100 nM Trichostatin A (TSA), IFNγ (100 U/ml) or a combination of TSA and IFNγ for 12 hours. RNA was isolated and real time quantitative RT-PCR was carried out. The fold increase in mRNA over the control was calculated.

[2] = test system: class II transactivator (CIITA) mRNA; experiment: CIITA mRNA by standard PCR and real-time PCR in human cell lines JAR and SK-N-MC; type: cell-based
Experimental: as §1, §2, §3
[…] RNA was isolated and real time quantitative RT-PCR was carried out. The fold increase in mRNA over the control was calculated.

HLA-DRα mRNA [3] = experiment: HLA-DRα mRNA by standard PCR and real-time PCR in human cell lines JAR and SK-N-MC; type: cell-based
cell lines employed = experiment: Toxicity of deacetylase inhibitors (lift-off, trypan-blue dye exclusion, laddering, PI/annexin-V flow cytometry); type: cell-based; details: 1 mM Na-butyrate for 12-48 hr
Experimental: Two representative DAIs, TSA and NaBu were used for this illustration. […] In some experiments, 100 U/ml γ-IFN was added with and without the deacetylase inhibitor.

[4] = test system: MHC class II protein on the cell surface; experiment: Cell surface MHC class II protein by flow cytometry on Colon 26 and J558; type: cell-based, mouse; details: J558; G2/M arrest experiment with nocodazole; data not shown
Experimental: To determine the effect of TSA on cell surface protein expression, the J558 cell line was subjected to flow cytometric analyses as follows. Flow cytometric analyses were conducted by standard methods using cells fixed with 1.0% paraformaldehyde and analyzed on the FACScan (Becton Dickinson). Cell cycle analyses were carried out by flow cytometry with PI staining of genomic DNA. Cells were fixed and permeablized in methanol, treated with RNaseA and analyzed for DNA content by determination of FL3-area on the FACScan. The FL3-area data were analyzed with the ModFit software for determination of the percent cells in each phase of the cell cycle. In some cases, fluorescein isothiocyanate (FITC)-conjugated antibody staining was conducted prior to PI treatment and surface staining was analyzed as a function of cell cycle phase. Apoptosis was analyzed by staining with annexin-V directly conjugated with either FITC or RPE and by sub-G0 analysis of DNA staining. Expression levels without treatment are shown as shaded peaks, IFNγ treated cell expression is plotted by a thin line while the level of expression on TSA treated cells is represented by a heavy line. Isotype controls were analyzed and, in each case, fell on or below the levels shown for control cells. MC and Colon 26 treatments are shown for 50 nM TSA for 48 hours, while J558 treatment is for 25 nM TSA for 24 hours. All IFNγ treatments were 100 U/ml for the same length of time as the corresponding TSA treatment. The percent of cells staining positive for MHC class II or CD40 expression is indicated below each histogram. Since all cells were positive for MHC class I expression, the number under the histogram represents -fold change of expression calculated from the mean channel-shift after treatment relative to untreated cells. Data are representative of at least three independent experiments. Of the 13 markers analyzed on J558 cells, only class I, II and CD40 were enhanced, while levels of several non-expressed antigens were not elicited (including CD25, B7 integrin, CD40L, H2K^k and IA^k) while other markers, which were expressed, were not altered (including CD44, CD54, CD80, CD86 and CD119) by TSA treatment. […] The highest expression (21-fold induction) was achieved on J558 cells after 24 hr by 25 nM TSA. […] The separation of control and IFNγ curves in the CD40, J558 experiment depicted in FIG. 8 represents a mean channel fluorescence difference of only 1.3 and was not seen on independent replicates of the experiment.
TSA has been described as a cell cycle inhibitor that induces both G1 and especially G2/M blocks (Bestor, 1998, Nature, 393:311-312; Yoshida et al., 1988, Exp. Cell Res. 177:122-131). MHC class II, but not class I, has been reported (Inokoshi et al., 1999, Biochem. Biophys. Res. Commun., 256:372-376; Monroe et al., 1983, J. Immunol., 130:626-631) to be regulated differentially during the cell cycle. Therefore the cell cycle of the cell lines used in the present invention was analyzed by DNA staining and flow cytometry with each of the treatment conditions under study. […] Two additional methods were used to analyze cell cycle effects on MHC expression. Since it has been reported that TSA arrests cell cycle mainly in G2/M, and class II has been reported to accumulate in G2/M (Monroe et al., 1983, supra), experiments were designed to essentially arrest 100% of J558 cells in G2/M with nocodazole. […] From the above experiments, it can be concluded that DAIs have specific effects on MHC class I and II, and CD40 gene expression, which is likely not a result of its action on the cell cycle.

CIITA mRNA = CIITA mRNA by RT-PCR and real-time PCR in mouse tumor cells Colon 26 and J558; type: cell-based
Experimental: as §1
(§4) In order to obtain more quantitative information on fold changes in DR and CIITA after treatment with the deacetylase inhibitors, a real time fluorescence technique capable of quantitating low copy numbers of transcripts was carried out as follows. Oligonucleotide primers and TaqMan 5′-6-FAM and 3′-TAMRA-labeled probes were synthesized in the RPCI Biopolymer Facility. Primer and probe sequences are listed under Sequence Listing and also in FIG. 9. Sequences were designed using standard software (PrimerExpress software, PE Biosystems) except for human GAPDH.
(§5) Realtime PCR reactions contained TaqMan Universal PCR Master Mix (PE Biosystems), primers at 300 nM, and probes at optimal concentrations (150-225 nM depending on gene). Reactions were carried out on an ABI PRISM 7700 Sequence Detection System (PE Biosystems). Cycling conditions were 50° C. for 2 min, 95° C. for 10 min, then 60 cycles of 95° C. for 15 sec, 60° C. for 1 min. PCR samples were run in triplicate. The detection system and quantitative PCR was carried out as described by Williamson et al. (1995, Genet Res. 65:83-93). The threshold cycle number CT corresponded to the cycle number, at which the fluorescent emission reaches 10 standard deviations above the mean fluorescent emission, measured during the early ‘baseline’ cycles of the PCR. The CT values for triplicates were averaged and normalized to GAPDH levels. […] In such cases, in order to calculate a minimum fold change for other samples in the same group, the CT value was arbitrarily set at 40. […] Assuming reverse transcription efficiencies were approximately the same for each sample, relative amounts of mRNA using the comparative CT method. Fold changes in mRNA levels were calculated as 2^x where x=the difference between normalized CT values of the control and experimental samples.
(§6) To determine if the effect of DAIs on MHC class II was manifested in other tumors and in different species, the effect of TSA was tested on four commonly used mouse tumor models: the SaI fibrosarcoma, the Colon 26 adenocarcinoma, the J558 plasmacytoma and the P815 mastocytoma. TSA induced class II in all four mouse tumors examined, while the effects of IFNγ were variable (FIG. 4). Data presented for each cell line represents optimal incubation time and concentration of TSA and is compared with 100 U/ml of IFNγ at the same time point. Numbers over bars represents fold changes. […] Colon 26 and J558 that differed strikingly in their reactivity to IFNγ were selected for further evaluation. RT-PCR and real time PCR was used to examine induction of CIITA and IAα by TSA and IFNγ. A20, a constitutively positive B cell line was used as a positive control. The results are shown in FIGS. 5A-D. The numbers over bars represent fold changes. […] Since the classical IFNγ inducible genes IRF-1 and GBP as well as MHC class I mRNA were not induced by IFNγ in J558 (data not shown), this cell line may have a signaling defect in the IFNγ pathway. Unexpectedly however, and unlike either the MC or Colon 26 cells, TSA induced both CIITA (102-fold) and Iα (537-fold) in J558 as shown in FIGS. 5B and 5D.

IAα mRNA = experiment: MHC class II (IAα) mRNA by RT-PCR and real-time PCR in mouse tumor models; type: cell-based
Experimental: as §1, §4, §5, §6

CCCC(=O)[O-].[Na+] [sodium butyrate]
fold increase in HLA-DRα (MHC class II) mRNA over the control (HLA-DRα mRNA [1]; real time quantitative RT-PCR, 100 nM TSA, IFNγ 100 U/ml or combination for 12 hours, sodium butyrate (FIG. 2)): 12 fold | levels of mRNA for DR (HLA-DRα mRNA [1]; standard PCR, 100 nM or 250 nM TSA or 1 mM sodium butyrate): substantial increase | increase in class II transactivator (CIITA) ([2]; JAR, real time PCR, sodium butyrate (FIG. 2)): no increase | CIITA transcription ([2]; JAR, standard PCR at 35 cycles, 100 nM or 250 nM TSA or 1 mM sodium butyrate): undetectable | CIITA mRNA fold change ([2]; MC cells, real time PCR up to 60 cycles, 100 nM TSA 24 hr, NaBu 1 mM 48 hr, IFNγ): no activation | CIITA transcription ([2]; SK-N-MC, routine RT-PCR at 35 cycles, 100 nM TSA 24 hours, 1 mM NaBu 48 hours, IFNγ): undetectable | fold increase in expression of DR (HLA-DRα mRNA [3]; MC cells, real time PCR, 100 nM TSA 24 hr, NaBu 1 mM 48 hr, IFNγ any concentration or time point): 88 fold | levels of mRNA for HLA-DRα (DR) (HLA-DRα mRNA [3]; SK-N-MC, RT-PCR, 100 nM TSA 24 hours, 1 mM NaBu 48 hours, IFNγ): substantial increase | toxicity (cell lines employed): non toxic

COC(=O)Nc1nc2ccc(C(=O)c3cccs3)cc2[nH]1 [Nocodazole, nocodazole]
MHC class II positive cells [4]: 23%

B1: IFNγ: gamma-interferon, cytokine used as comparator at 100 U/ml (protein, UniProt P01579 24-161, looked up)
Interferon gamma: QDPYVKEAENLKKYFNAGHSDVADNGTLFLGILKNWKEESDRKIMQSQIVSFYFKLFKNFKDDQSIQKSVETIKEDMNVKFFNSNKKKRDDFEKLTNYSVTDLNVQRKAIHELIQVMAELSPAAKTGKRKRSQMLFRG
CIITA fold induction (CIITA mRNA): did not activate | Iα (class II) fold induction (IAα mRNA): did not activate
